# Reference: patent publication US12527788B2, “Defining RNA-small molecule affinity landscapes enables design of a small molecule inhibitor of an oncogenic non-coding RNA” (University of Florida Research Foundation, Incorporated, priority 2017, dated 2026)
# Columns and labels:
# 4IL8 RNA = assay: Competitive binding assay with 4-FL; settings: RNA 4IL8, competitive binding with 4-FL; read-out: Binding affinity
# Description: (§1) Competitive binding assays were completed by incubating the RNA of interest with 100 nM 4-FL and increasing concentrations of 4. The resulting curves were fit to equation 4:
# (§2) [formula] where θ is the percentage of 4-FL bound, [4-FL] is the concentration of 4-FL, Kt is the dissociation constant of RNA and 4-FL, [RNA] is the concentration of RNA, Ct is the concentration of 4, Kd is the dissociation constant for 4, and A is a constant.
# 4IL1 RNA = assay: Competitive binding assay with 4-FL; settings: RNA 4IL1, competitive binding with 4-FL; read-out: Binding affinity
# Description: as §1, §2
# [1] = test system: 5′GGU/3′C_A (G bulge of pre-miR-17 and pre-miR-20a); assay: HiT-StARTS Fitness Score, 3×2 ILL selection; format: binding, human; settings: Zobs normalized to most significant binder
# Source text: (§3) Additionally, Zobs Rank (and by analogy Zobs) can also be used to estimate the affinities of binding interactions (FIG. 5). Single exponential curves with an asymptote defined a correlation between Zobs and experimentally determined Kd for each compound and its cognate RNA motifs. In all cases, there is excellent correlation with R values ranging from 0.86 to 0.96. These scoring functions can provide a means to rapidly profile small molecules for binding to an “on-” and “off-” targets, as mentioned above. Zobs values were normalized to the most statistically significant RNA binder (100% Fitness) to afford Fitness Scores.
# (§4) To test the general applicability of these approaches to other RNA motif libraries, we used 2DCS to select RNA motifs derived from a 3×2 internal loop library (3×2 ILL) that bind to small molecules 1-8. […] That is, selective binders have Zobs>8 (p<0.0001) and relative Zobs defined a scoring function for the selected RNA motif-small molecule interactions.
# (§5) These studies identified that compound 4 bound with 100% Fitness to the 5′ G_U/3′CUA (one nucleotide U bulge) that is present in the Dicer processing sites of three microRNAs (miRNAs) in the oncogenic miR-17-92 cluster (contains six mature miRNAs),^43 miR-17, -18a, and -20a. […] The binding affinity of 4 for RNAs containing these three bulges was measured (FIG. 7).
# (§6) Calculating Statistical Significance (Zobs) for Selected RNAs: To determine if the difference in frequency for given RNA in the starting library and in the selection was statistically significant, a pooled population comparison (Zobs) was calculated using equations (1) and (2):
# (§7) [formula] […] Where n1 is the size of population 1 (number of reads for a selected RNA); n2 is the size of population 2 (number of reads for the same RNA from sequencing of the starting library); p1 is the observed proportion of population 1 (number of reads for a selected RNA divided by the total number of reads); p2 is the observed proportion for population 2 (number of reads for the same RNA divided by the total number of reads in the starting library).
# [2] = test system: 5′G_U/3′CUA (one nucleotide U bulge); assay: HiT-StARTS Fitness Score, 3×2 ILL selection; format: binding, human; settings: Zobs normalized to most significant binder
# Source text: as §3, §4, §5, §6, §7
# [3] = test system: 5′GAU/3′C_A (A bulge of pre-miR-18a); assay: HiT-StARTS Fitness Score, 3×2 ILL selection; format: binding, human; settings: Zobs normalized to most significant binder
# Source text: as §3, §4, §5, §6, §7
# [4] = test system: 33 mature miRNAs with potential binding sites for 4; assay: Profiling of mature miRNAs with potential binding sites in DU145 cells; format: cell-based, human
# Source text: We further probed the selectivity of 4 by studying its effect on levels of other mature miRNAs (FIG. 8C) and on pre-miR-17, -18a and -20a. We identified miRNAs with potential binding sites for 4, as determined by HiT-StARTS, using a database of RNA folds in the human miRNA transcriptome,^38 including the 5′G_U/3′CUA bulge common to the Dicer processing sites in miR-17, -18a and -20a (n=33). The potential binding sites for 4 can occur anywhere in the miRNA; that is, they were not confined to Drosha or Dicer processing sites. Other miRNAs that contain the 5′G_U/3′CUA motif have a much lower expression level than miR-17, miR-18a, and miR-20. Studying these RNAs could allow assessment of influence of expression level on compound potency and selectivity, an important consideration in RNA targeting that has largely gone unaddressed.
# Collectively, it appears that it is easier to target and inhibit the biogenesis of highly expressed miRNAs than the ones that are of lower expression. Such effects have been well-documented in the protein-targeting community but until now have not been studied in RNA targeting endeavors.
# Cell Culture: DU145 cells were cultured in growth medium (Roswell Park Memorial Institute medium (RPMI) supplemented with 10% fetal bovine serum (FBS)) at 37° C. and 5% CO2 […]
# pre-miR-20a = assay: Chem-CLIP in DU145 cell lysates; format: binding, human; settings: 10 μM, DU145 cell lysate
# Description: (§8) Chem-CLIP in Cell Lysates: DU145 cells were cultured as described above in 100 mm dishes and lysed with 500 μL of Cell Lysis Buffer (10 mM Tris pH 7.4, 0.25% Igepal CA-630 and 150 mM NaCl) for 5 min at room temperature. The cell lysate was then centrifuged and the supernatant collected. Next, 10 μM of 4 was added to the lysate in 1×PBS and the sample was incubated for 2 h at room temperature. The reaction was then directly used for pull-down by incubating with 50 μL of streptavidin resin in 1×PBS for 30 min at room temperature. […] RNA was eluted from the streptavidin beads by incubation with 100 μL of 1× Elution Buffer (10 mM EDTA and 95% formamide) at 65° C. for 20 min. The eluted RNA was cleaned up using a Quick-RNA Miniprep Kit (Zymo) per the manufacturer's protocol. RT-qPCR was completed as described above using 50 ng of total RNA in the RT reaction. Expression levels were normalized to 18S rRNA.
# pre-miR-18a = assay: Chem-CLIP in DU145 cell lysates; format: binding, human; settings: 10 μM, DU145 cell lysate
# Description: as §8
# pre-miR-17 = assay: Chem-CLIP in DU145 cell lysates; format: binding, human; settings: 10 μM, DU145 cell lysate
# Description: as §8
smiles,measurement,setting,value
CN1CCN(c2ccc(-c3ccc4nc(-c5cc(C(C)(C)C)c(OCCCC(=O)NCCCN=[N+]=[N-])c(C(C)(C)C)c5)[nH]c4c3)cc2)CC1 [Compound 4],Kd,4IL8 RNA,7.5 ± 0.6 µM
same,Kd,4IL1 RNA,5.5 ± 1.3 µM
same,Fitness,[1],78%
same,Fitness,[2],100%
same,Fitness,[3],91%
same,Effect on levels of 33 other mature miRNAs,[4],no statistically significant effect
same,Enrichment in pulled-down fraction,pre-miR-20a,~2 fold
same,Enrichment in pulled-down fraction,pre-miR-18a,~4 fold
same,Enrichment in pulled-down fraction,pre-miR-17,~2 fold
